One experiment addresses EP4 (Homo sapiens (Human), UniProt P35408). Description: hEP4 cAMP assay (BT549 breast cancer cells, HTRF cAMP). The note with it: antagonistic activity, PGE2 6 nM. The format is cell-based. A digest of the protocol: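 BT549 breast cancer cells (endogenous EP4) in HBSS/20 mM HEPES/0.2% BSA/2 mM IBMX preincubated 45 min at RT with compound, then stimulated 30 min at RT with 6 nM PGE2 (final). cAMP read by competitive HTRF immunoassay, signal inversely proportional to cAMP.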
(In general: Changes in cAMP serve as a functional read-out for many G protein-coupled receptors.)

The next experiment addresses PTGER4 (EP4) (Homo sapiens (Human), UniProt P35408).
The target of a further experiment is EP2 (Homo sapiens (Human), UniProt P43116). Description: hEP2 cAMP assay (SF295 glioblastoma cells, HTRF cAMP). The class given is cell-based. The note with it: antagonistic activity. In a few lines: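 PGE2-driven cAMP accumulation was measured by HTRF in SF295 cells, which express endogenous EP2 only. Cells in assay buffer with 2 mM IBMX were pre-incubated 45 min at RT, then incubated 30 min at RT. Detection used competition between cellular cAMP and d2-cAMP for a cryptate anti-cAMP antibody.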

For the next experiment, the target named is PTGER2 (EP2) (Homo sapiens (Human), UniProt P43116). Description: hEP2 b-arrestin assay (PathHunter HEK 293 PTGER2 b-arrestin cells). The format is cell-based. Particulars: antagonistic activity, beta-arrestin assay; read-out: hEP2 b-arr IC50. As for the experimental part: Plate is pre-incubated 15 minutes at 37° C. Then five microliters of PGE2 (final conc. 5 μM) are transferred into the assay plate. Plate is incubated 120 minutes at 37° C.
(each concentration is measured in duplicate)

SMILES strings stand for the structures. pIC50: −log10 of the molar value.

The term pIC50 denotes −log10 of the IC50, conventionally taken in molar units.

Chain of EP2 (P43116 whole entry): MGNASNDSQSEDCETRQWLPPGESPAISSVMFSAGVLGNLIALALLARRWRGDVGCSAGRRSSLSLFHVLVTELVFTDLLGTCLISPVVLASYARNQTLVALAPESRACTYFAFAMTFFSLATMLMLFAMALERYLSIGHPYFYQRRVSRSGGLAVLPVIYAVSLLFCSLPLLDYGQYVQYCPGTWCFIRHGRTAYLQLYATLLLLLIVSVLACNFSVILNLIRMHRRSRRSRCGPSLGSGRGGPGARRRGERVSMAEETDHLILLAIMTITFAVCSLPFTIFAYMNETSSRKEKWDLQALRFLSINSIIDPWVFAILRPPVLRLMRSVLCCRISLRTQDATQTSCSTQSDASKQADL
Chain of PTGER2 (EP2) (P43116 whole entry): as above
Chain of EP4 (P35408 whole entry): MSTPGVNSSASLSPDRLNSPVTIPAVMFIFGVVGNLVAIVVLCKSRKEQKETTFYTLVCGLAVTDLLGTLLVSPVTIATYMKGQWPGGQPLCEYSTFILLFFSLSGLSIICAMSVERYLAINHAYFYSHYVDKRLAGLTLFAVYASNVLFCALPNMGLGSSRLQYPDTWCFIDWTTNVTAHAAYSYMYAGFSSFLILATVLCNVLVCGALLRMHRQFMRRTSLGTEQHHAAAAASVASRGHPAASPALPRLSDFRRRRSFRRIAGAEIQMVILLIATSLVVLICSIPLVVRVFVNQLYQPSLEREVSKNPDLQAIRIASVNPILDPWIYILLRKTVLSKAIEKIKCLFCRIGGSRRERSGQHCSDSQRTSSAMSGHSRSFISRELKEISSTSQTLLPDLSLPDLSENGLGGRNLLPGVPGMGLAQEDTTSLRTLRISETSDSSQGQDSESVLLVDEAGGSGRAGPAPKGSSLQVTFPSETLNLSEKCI
Chain of PTGER4 (EP4) (P35408 whole entry): as above
Excerpt for PTGER4 (EP4): The system is based on the Enzyme Fragment Complementation Technology. Two complementing fragments of the b-galactosidase enzyme are expressed within stably transfected cells. The larger portion of b-gal, termed EA for Enzyme Acceptor, is fused to the C-terminus of b-arrestin 2. The smaller fragment, termed ProLink™ tag, is fused to PTGER2 (EP2) or PTRGER4 (EP4) at the C-terminus. Upon activation, b-arrestin is recruited which forces the interaction of ProLink and EA, allowing complementation of the two fragments of b-gal and the formation of a functional enzyme which is capable of hydrolysing the substrate and generating a chemiluminescent signal.
Plate is incubated at 37° C., 5% CO2 for 24 hours.
Stock solutions of test compounds are made at a concentration of 10 mM in DMSO, and serially diluted in DMSO to concentrations required for inhibition dose response curves (tested concentration range 10 μM-2 nM or 1 μM-0.2 nM).
Five microliters of diluted compounds are transferred into the assay plate. Plate is pre-incubated 15 minutes at 37° C. Then five microliters of PGE2 (final conc. 20 nM) are transferred into the assay plate. Plate is incubated 120 minutes at 37° C.
Twelve I of reagent are transferred to the assay plate and incubate for 1 hour at RT in the dark. Luminescence counts are read on a BMG Fluostar Optima reader according to manufacturer's instructions.
For each compound concentration calculate of the percentage of activity compared to DMSO control value as average ±STDEV. (each concentration is measured in duplicate)

For the compound `CCOc1cc(-c2cc(NCCc3ccc4scc(C#N)c4c3)ncn2)ccc1CC(=O)O` [Ex 209], the pIC50 at EP4 was 6.60; against PTGER4 (EP4), 6.84; on EP2, 6.61; on PTGER2 (EP2), 6.08.
In the same order, the values of `CSc1cc(-c2cc(NCCc3ccc4c(c3)CCS4)ncn2)ccc1C(=O)O` [Ex 138] are 6.92, 6.45, 7.21 and 7.13.
Turning to `CCOc1cc(-c2cc(NCCc3cc4ccsc4cc3OC)ncn2)ccc1CC(=O)O` [Ex 118], the pIC50 at EP4 was 7.06; against PTGER4 (EP4) it was 7.13; against EP2, 7.18; on PTGER2 (EP2) it was 7.47.
In the same order, the values of `CSc1cc(-c2cc(NCCc3ccc4sccc4c3C)ncn2)ccc1C(=O)O` [Ex 204] are 6.73, 6.20, 7.54 and 7.92.
The matching figures for `C#Cc1c(CCNc2cc(-c3cc(OCC)c(C(=O)O)s3)ncn2)ccc2ccccc12` [Ex 17]: 8.05, 8.10, 6.77 and 6.97.
As to `CCOc1cc(-c2cc(NCCc3cc4c(cc3OC)OCCO4)ncn2)sc1C(=O)O` [Ex 26], the pIC50 at EP4 is 7.80; against PTGER4 (EP4), 7.66; against EP2 it was 7.72; at PTGER2 (EP2) it was 7.72.
For `CCOc1cc(-c2cc(NCCc3cc4c(cc3C#N)OCO4)ncn2)sc1C(=O)O` [Ex 64], the pIC50 against EP4 is 7.48; on PTGER4 (EP4) it was 7.39; against EP2 it was 7.55; on PTGER2 (EP2) it was 7.60.
For `CCOc1cc2ccccc2cc1CCNc1cc(-c2ccc(C(=O)O)c(OC3CCC3)c2)ncn1` [Ex 171], the pIC50 at EP4 is 6.74; against PTGER4 (EP4), 7.21; against EP2, 6.92; on PTGER2 (EP2), 7.08.
The matching figures for `CCOc1cc(-c2cc(NCCc3cc4c(cc3OC)OCCO4)ncn2)ccc1OCC(=O)O` [Ex 120]: 7.04, 7.21, 6.95 and 6.94.
In the same order, the values of `CCOc1cc2sccc2cc1CCNc1cc(-c2ccc(C(=O)O)c(OCC)c2)ncn1` [Ex 126] are 7.00, 7.18, 8.22 and 8.10.
The matching figures for `COc1cc2ccccc2c(C)c1CCNc1cc(-c2ccc(C(=O)O)c(SC)c2)ncn1` [Ex 59]: 7.52, 7.03, 7.74 and 7.43.
For `CCOc1cc(-c2cc(NCCc3ccc4c(c3)CCS4)ncn2)sc1C(=O)O` [Ex 15], the pIC50 is 8.10 against EP4, 7.92 against PTGER4 (EP4), 7.55 on EP2 and 6.75 at PTGER2 (EP2).
Regarding `CCOc1cc(-c2cc(NCCc3ccc4ccccc4c3C)ncn2)sc1CC(=O)O` [Ex 148], the pIC50 was 6.85 against EP4, 7.34 at PTGER4 (EP4), 6.90 at EP2 and 6.76 on PTGER2 (EP2).
The matching figures for `CCOc1cc(-c2cc(NCCc3cc4c(Cl)ccnc4cc3C)ncn2)sc1C(=O)O` [Ex 178]: 6.73, 6.79, 7.27 and 7.52.
Turning to `CCOc1cc(-c2cc(NCCc3c(OC)cc4ccccc4c3F)ncn2)ccc1CC(=O)O` [Ex 37], the pIC50 against EP4 was 7.66; at PTGER4 (EP4), 7.80; on EP2, 6.55.
`COc1c(CCNc2cc(-c3ccc(C(=O)O)c(SC)c3)ncn2)cc2ccccc2c1Cl` [Ex 186]: the pIC50 on EP4 was 6.69; at PTGER4 (EP4) it was 6.71; against EP2, 6.09.
In the same order, the values of `C#Cc1c(CCNc2cc(-c3ccc(OCC(=O)O)c(OCC)c3)ncn2)ccc2ccccc12` [Ex 140] are 6.92, 7.02 and 6.34.
The matching figures for `CCOc1cc(-c2cc(NCCc3cc4ccsc4cc3C#N)ncn2)ccc1CC(=O)O` [Ex 82]: 7.34, 6.89 and 6.60.
`CCOc1cc(-c2cc(NCCc3cc4ccccc4cc3Cl)ncn2)ccc1C(=O)O` [Ex 279]: the pIC50 on EP4 is 6.31; against PTGER4 (EP4), 6.13; on EP2 it was 6.25.
In the case of `C#Cc1c(CCNc2cc(-c3ccc(C(=O)O)c(OC4CCC4)c3)ncn2)ccc2ccccc12` [Ex 131], the pIC50 against EP4 is 6.97; against PTGER4 (EP4), 7.17; on EP2 it was 6.45.
On to `CCOc1cc(-c2cc(NCCc3ccc4cccc(F)c4c3)ncn2)sc1C(=O)O` [Ex 66], for which the pIC50 was 7.46 on EP4, 7.68 on PTGER4 (EP4) and 5.91 against EP2.
In the case of `CCOc1cc(-c2cc(NCCc3cc4cnccc4cc3F)ncn2)sc1C(=O)O` [Ex 106], the pIC50 against EP4 is 7.13; on PTGER4 (EP4) it was 6.87; at EP2, 6.08.
The matching figures for `C=Cc1c(CCNc2cc(-c3cc(OCC)c(C(=O)O)s3)ncn2)ccc2ccccc12` [Ex 75]: 7.39, 7.07 and 6.32.
On to `CCOc1cc(-c2cc(NCCc3cc4ccccc4cc3OC(C)C)ncn2)ccc1OCC(=O)O` [Ex 89], for which the values for the pIC50 at EP4, against PTGER4 (EP4) and on EP2 were 7.27, 7.77 and 4.71, respectively.
For `CCOc1cc(-c2cc(NCCc3cc4ccccc4cc3OC(C)C)ncn2)ccc1C(=O)O` [Ex 284], the pIC50 against EP4 was 6.29; against PTGER4 (EP4) it was 6.90; against EP2, below 4.55.
For the compound `CCOc1cc(-c2cc(NCCc3cc4cccnc4c(C)c3Cl)ncn2)ccc1OCC(=O)O` [Ex 179], the pIC50 was 6.73 at EP4, 6.51 on PTGER4 (EP4) and 6.25 against EP2.
In the same order, the values of `CCOc1cc(-c2cc(NCCc3ccc4cccnc4c3C)ncn2)sc1C(=O)O` [Ex 22] are 7.89, 7.70 and 6.40.
In the same order, the values of `O=C(O)c1ccc(-c2cc(NCCc3ccc4scnc4c3)ncn2)cc1OC1CCC1` [Ex 291] are 6.27, 6.09 and 6.57.
In the same order, the values of `CCOc1cc(-c2cc(NCCc3cc4cccnc4cc3F)ncn2)sc1C(=O)O` [Ex 98] are 7.19, 7.48 and 6.50.
Consider `CCOc1cc(-c2cc(NCCc3cc4ccccc4cc3OC(C)C)ncn2)sc1C(=O)O` [Ex 31], for which the pIC50 is 7.74 against EP4, 8.22 on PTGER4 (EP4) and 5.11 on EP2.
The matching figures for `CCOc1cc(-c2cc(NCCc3ccc4ncccc4c3)ncn2)sc1-c1noc(=O)[nH]1` [Example 338, 3-{3-Ethoxy-5-[6-(2-quinolin-6-yl-ethylamino)-pyrimidin-4-y]-thiophen-2-yl}-[1,2,4]oxadiazol-5(4H)-one]: 7.19, 7.82 and 6.34.
`CCOc1cc(-c2cc(NCCc3cc4c(cc3Cl)NCCO4)ncn2)sc1C(=O)O` [Ex 149]: the pIC50 against EP4 was 6.84; against PTGER4 (EP4), 6.71; on EP2 it was 6.21.

(Values after patent US11839613B2, “Pyrimidine derivatives as PGE2 receptor modulators” (IDORSIA PHARMACEUTICALS LTD, priority 2017, dated 2023).)
